Laboratory results taken from PubChem BioAssay (NCI).
Several values for one entry are separate records, joined by “and”; a condition that tells them apart may be missing. Equal entries are not always repeated.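 Compound exposure: 48 hours, 5 concentrations, 96-well plates. GI50 = concentration required for 50% inhibition of growth. TGI denotes the concentration required for complete inhibition of growth.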

Columns and labels:
Assay in all cases: NCI-60 cell line screen, 48 h
[1] = system: SK-MEL-5 melanoma
[2] = system: OVCAR-5 ovarian
[3] = system: IGROV1 ovarian
[4] = system: HL-60(TB) leukemia
[5] = system: SNB-19 CNS
[6] = system: MALME-3M melanoma
[7] = system: KM12 colon
[8] = system: OVCAR-3 ovarian
[9] = system: UO-31 renal
[10] = system: SK-OV-3 ovarian

Structure (SMILES)	GI50 [1]	TGI [1]	GI50 [2]	TGI [2]	GI50 [3]	TGI [3]	GI50 [4]	TGI [4]	GI50 [5]	TGI [5]	GI50 [6]	TGI [6]	GI50 [7]	TGI [7]	GI50 [8]	TGI [8]	GI50 [9]	TGI [9]	GI50 [10]	TGI [10]
FC(F)(c1ccc2ncccc2c1)c1nnc2ccc(-c3ccncc3)nn12	48.5 µM	> 100 µM	> 100 µM	> 100 µM	49.4 µM	> 100 µM	> 100 µM	> 100 µM	> 100 µM	> 100 µM	> 100 µM	> 100 µM	69.7 µM	> 100 µM	> 100 µM	> 100 µM	19.2 µM	> 100 µM	> 100 µM	> 100 µM
CCOC(=O)Nc1nc2ccc(OC)cc2s1	> 100 µM	> 100 µM	> 100 µM	> 100 µM	> 100 µM	> 100 µM	> 100 µM	> 100 µM	> 100 µM	> 100 µM	> 100 µM	> 100 µM	> 100 µM	> 100 µM	> 100 µM	> 100 µM	> 100 µM	> 100 µM	> 100 µM	> 100 µM
CCNC(=O)COc1ccc(Br)cc1Br	–	> 100 µM	–	> 100 µM	–	> 100 µM	–	> 100 µM	–	> 100 µM	–	> 100 µM	–	> 100 µM	–	> 100 µM	–	> 100 µM	–	> 100 µM
COc1cc2ncn(-c3cc(OCc4ccccc4C(F)(F)F)c(C(=O)N(C)C)s3)c2cc1OC	6.7 µM	> 13.1 µM	> 25 µM	> 25 µM	> 25 µM	> 25 µM	> 25 µM	> 25 µM	> 25 µM	> 25 µM	> 25 µM	> 25 µM	> 25 µM	> 25 µM	> 21.8 µM	> 25 µM	9.69 µM	> 25 µM	> 16 µM	> 25 µM
O=[N+]([O-])c1cc(Cl)c2[nH]c3c(Cl)cc([N+](=O)[O-])cc3c2c1	0.129 µM	0.651 µM	1.33 µM	> 29.5 µM	0.471 µM	> 100 µM	0.304 µM	6.34 µM	0.357 µM	> 100 µM	0.265 µM	4.04 µM	0.354 µM	> 100 µM	0.279 µM	> 100 µM	0.189 µM	1.38 µM	0.468 µM	5.8 µM
CC(=O)N/N=C1\CC(C)(C)C2CCC1C2 (stereo unspecified)	–	> 100 µM	–	> 100 µM	–	> 100 µM	–	> 100 µM	–	> 100 µM	–	> 100 µM	–	> 100 µM	–	> 100 µM	–	> 100 µM	–	> 100 µM
COC/C=C\COC	–	> 100 µM	–	> 100 µM	–	> 100 µM	–	> 100 µM	–	> 100 µM	–	> 100 µM	–	> 100 µM	–	> 100 µM	–	> 100 µM	–	> 100 µM
CC1=CC(=O)CC2(C)CC[C@@H]3C[C@]12OC3(C)C (stereo partly specified)	–	> 100 µM	–	> 100 µM	–	> 100 µM	–	> 100 µM	–	> 100 µM	–	> 100 µM	–	> 100 µM	–	> 100 µM	–	> 100 µM	–	> 100 µM
CC1CCC2(NC1)OC1CC3C4CC=C5CC(O)CCC5(C)C4CCC3(C)C1C2C (stereo unspecified)	59 µM and 27.3 µM	> 100 µM	–	> 100 µM	–	> 100 µM	–	31.5 µM and 29.9 µM	18.9 µM and 6.38 µM	99.5 µM and 62.1 µM	34.1 µM and 13.5 µM	> 100 µM and 34.3 µM	14 µM and 6.75 µM	47.4 µM and 64.4 µM	28 µM and 8.98 µM	> 100 µM and 32.5 µM	18.2 µM and 6.3 µM	37.8 µM and 13.8 µM	–	69.2 µM and 38.6 µM
CCCCCCCCOC(=O)CC[C@@H](C)[C@H]1CC[C@H]2[C@@H]3[C@H](OC(=O)CCN)C[C@@H]4C[C@H](OC(=O)CCN)CC[C@]4(C)[C@H]3C[C@H](OC(=O)CCN)[C@]12C	19.4 µM	51.7 µM	3.24 µM	10.1 µM	3.24 µM	9.1 µM	3.32 µM	11.3 µM	3.48 µM	13.8 µM	2.58 µM	5.86 µM	3.04 µM	7.51 µM	14.6 µM	35.4 µM	21.9 µM	42 µM	10.5 µM	27 µM
Cc1nc(-c2ccccc2)n2nc(NCCCN3CCOCC3)ncc12	> 16.7 µM	> 25 µM	> 25 µM	> 25 µM	13.8 µM	> 25 µM	> 25 µM	> 25 µM	> 25 µM	> 25 µM	> 17.9 µM	> 25 µM	> 25 µM	> 25 µM	> 25 µM	> 25 µM	4.48 µM	24.4 µM	6.1 µM	17.9 µM
